Common to all, as to format: functional
For assay [1], the system named is Candida albicans. As to the kind of experiment: Antifungal activity against Fluconazole- resistant Candida albicans incubated for 24 hrs in presence of fluconazole by microbroth dilution method. In general terms: Broth dilution looks for growth in wells or tubes with falling amounts of substance.
The test system of assay [2] is Candida albicans. As to the kind of experiment: Antifungal activity against Fluconazole- resistant Candida albicans incubated for 24 hrs by microbroth dilution method.
The test system of a further assay is Plutella xylostella. Briefly: Larvicidal activity against Plutella xylostella assessed as mortality and measured upto 4 days. To be noted: 96 h, time <= 4 day.
In assay [3] the test system is Candida albicans. As to the kind of experiment: Antifungal activity against Candida albicans incubated for 24 hrs by microbroth dilution method.

Each structure is given as a SMILES string. Values after ≈ are worked out from the molar mass of the structure shown.

Usually MIC50 stands for an inhibitory concentration at the 50% level, which refers to growth in some studies and to a panel of isolates in others. One may read the LC50 as the concentration lethal to half of the exposed cells or organisms.

On to `CC[C@H](C)C(=O)O[C@@]12[C@H](OC(=O)c3ccccc3)[C@@H](C)[C@@]3(O)[C@@H](C=C(CO)C[C@]4(O)C(=O)C(C)=C[C@@H]34)[C@@H]1C2(C)C`, for which the MIC50 with Candida albicans [1] was found to be 5.1 µg/mL. As for `CCCCCCCCCC(=O)O[C@@]12[C@H](OC(=O)[C@@H](C)CC)[C@@H](C)[C@@]3(O)[C@@H](C(=O)C(CO)=C[C@]4(O)C(=O)C(C)=C[C@@H]34)[C@@H]1C2(C)C`, the MIC50 was determined as 161 µg/mL (≈ 261 µM) against Candida albicans [2] and 5.18 µg/mL in the assay with Candida albicans [1]. On to `CC/C=C\C/C=C\CCC(=O)O[C@@]12[C@H](OC(=O)[C@@H](C)CC)[C@@H](C)[C@@]3(O)[C@@H](C(=O)C(CO)=C[C@]4(O)C(=O)C(C)=C[C@@H]34)[C@@H]1C2(C)C`, for which the MIC50 with Candida albicans [2] was determined as 159 µg/mL (≈ 260 µM); in the assay on Candida albicans [1], 11.9 µg/mL. The LC50 in the assay with Plutella xylostella was 160 nM. As for `C/C=C(\C)C(=O)O[C@@H]1[C@@H](C)[C@@]2(O)[C@@H](C(=O)C(CO)=C[C@]3(O)C(=O)C(C)=C[C@@H]23)[C@@H]2C(C)(C)[C@]12OC(=O)CC/C=C\CCCCC`, the LC50 in the assay on Plutella xylostella turned out to be 260 nM.

Turning to `CC[C@H](C)C(=O)O[C@@H]1[C@@H](C)[C@@]2(O)[C@@H](C(=O)C(CO)=C[C@]3(O)C(=O)C(C)=C[C@@H]23)[C@@H]2C(C)(C)[C@]12OC(=O)[C@@H](C)CC`, the results for the MIC50 with Candida albicans [2] and with Candida albicans [1] were 15.1 µg/mL (≈ 27.6 µM) and 14 µg/mL, respectively. As to `OC(Cn1cncn1)(Cn1cncn1)c1ccc(F)cc1F` [FLUCONAZOLE], the MIC50 against Candida albicans [3] came to 4.4 µg/mL (≈ 14.4 µM).

With `Cc1cc(C(F)(C(F)(F)F)C(F)(F)F)ccc1NC(=O)c1cccc(I)c1C(=O)NC(C)(C)CS(C)(=O)=O` [FLUBENDIAMIDE], the 50% lethal concentration (LC50) in the assay with Plutella xylostella is 140 nM. On to `CCCCC/C=C\CCC(=O)O[C@@]12[C@H](OC(=O)[C@@H](C)CC)[C@@H](C)[C@@]3(O)[C@@H](C(=O)C(CO)=C[C@]4(O)C(=O)C(C)=C[C@@H]34)[C@@H]1C2(C)C`, for which the results for the MIC50 in the assay on Candida albicans [2] and with Candida albicans [1] were 200 µg/mL (≈ 325 µM) and 63.4 µg/mL, respectively. Also, in the assay with Plutella xylostella, the LC50 turned out to be 190 nM. For `CCCCCCCC(=O)O[C@@]12[C@H](OC(=O)[C@@H](C)CC)[C@@H](C)[C@@]3(O)[C@@H](C(=O)C(CO)=C[C@]4(O)C(=O)C(C)=C[C@@H]34)[C@@H]1C2(C)C`, the MIC50 in the assay on Candida albicans [2] was determined as 114 µg/mL (≈ 193 µM); with Candida albicans [1], 50.5 µg/mL.
